# Test results reported in patent publication US8815305B2, “Composition containing a plant extract and process for producing same” (BASF Beauty Care Solutions France S.A.S., priority 2003, dated 2014).
# Key:
# human fibroblasts [1] = experiment: Survival efficacy test on human fibroblasts (DNA, ATP, proteins, GSH); assay type: cell-based; details: for ATP / DNA / GSH/proteins / Proteins: quiescent fibroblasts, 3 days
# Procedure: Human fibroblasts were inoculated in a standard medium of a cell culture with foetal calf serum (FCS). After an incubation of 3 days the cells became quiescent, then the growth medium was exchanged for a standard medium with a range of concentrations for each ingredient to be tested. After an incubation of 3 days, the number of viable cells was determined by evaluation of the levels of and the rates of cellular DNA (fluorescent probe), ATP (enzymatic method), proteins (Bradford's method) and GSH which is evaluated according to the method of Hissin (Hissin P. J., Hilf R. A, fluorometric method for determination of oxidised and reduced Glutathione in tissues. Analytical Biochemistry (1977) volume 74, pages 214-226).
# human keratinocytes = experiment: Cytophotoprotection of human keratinocytes against UV-B radiation; assay type: cell-based; details: for Cell number, % against control / Released LDH, % against control / Released PGE2, % against control: UVB
# Excerpt: UV-B irradiation (from 280 to 320 nm) of the human skin induces a cutaneous inflammation mainly by activation of an enzyme (phospholipase A2 or PLA2), which releases arachidonic acid from the cell membranes of the cells of the skin (V. A. De Leo, D. Hanson, I. B. Weinstein and L. C. Harber—Ultraviolet radiation stimulates the release of arachidonic acid from mammalian cells in culture—Photochemistry and Photobiology (1985) volume 41N°1 pages 51-56). Then other specific enzymes (so called cyclo-oxygenases) transform arachidonic acid in active components called prostaglandines (or PG) which are secreted out of the cells. The fixation of certain prostaglandins (PGE2) on specific skin receptors is followed by redness and swelling as after a sunburn. On cultured human cells, these UV-B effects on cell membranes are associated with a release in the supernatant medium of a cytoplasmic enzyme, the Lactate Dehydrogenase or LDH (B. Bonnekoh, B. Farkas, J. Geisel and G. Mahrle—Lactate dehydrogenase release as an indicator of dithranol-induced membrane injury in cultured human keratinocytes. Dermatological research (1990) volume 282, pages 325-331).
# Expressed in keywords, the experiments were carried out as follows: • Inoculation of human keratinocytes within growth medium (standard medium with fetal calf serum (FCS) • Incubation 3 days at 37° C., CO2=5% • Exchange of growth medium with balanced salt solution containing ingredient to be tested • Irradiation of keratinocytes by UV-B: 50 mJ/cm^2 (DUKE GL40E lamp) (A DUKE GL40E lamp is a certain type of marketed sunlamp well known to the skilled artisan) • Incubation 1 day at 37° C., CO2=5% • Numeration of adherent cells after trypsination (trypsination is a process based on the use of the enzyme trypsine which is a protease allowing the retrieval of cell from the support in order to seed the cells into a bigger flask and therefore to expand the cell culture) • Recovery of supernatant medium for spectrophotometric determination of the activity of LDH, and PGE2 by ELISA method
# human fibroblasts [2] = experiment: Toxicity tests and growth tests on human fibroblasts (cellular proteins, Bradford); assay type: cell-based
# [3] = as above; assay type: cell-based; details: human
# [4] = test system: skin chronic inflammation; details: in vivo; cited from earlier work
# elastase from pancreas = elastase from pancreas (Sus scrofa, UniProt P00772); experiment: Elastase inhibition, Elastin-Congo red as substrate; assay type: biochemical
# elastase from pancreas, sequence (P00772 27-266): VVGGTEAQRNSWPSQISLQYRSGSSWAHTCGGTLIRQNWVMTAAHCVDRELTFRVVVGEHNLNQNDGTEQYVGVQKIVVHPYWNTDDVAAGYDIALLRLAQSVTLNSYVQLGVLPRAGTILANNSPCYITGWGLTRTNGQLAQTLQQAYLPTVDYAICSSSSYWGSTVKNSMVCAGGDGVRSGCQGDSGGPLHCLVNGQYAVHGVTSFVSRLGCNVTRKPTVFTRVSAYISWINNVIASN
# Procedure: This test was carried out with an elastase from pancreas on Elastin labelled with Congo red. The time of incubation was 30 minutes at room temperature and the optical density of released Congo red was recorded after centrifugation at a wavelength of 520 nm. al-antitrypsine was used as positive reference.
# The following table summarizes the results expressed as EC 50 in % w/v. (EC 50 in % w/v is the concentration in % w/v which reduces the enzymatic activity by 50%.)
# [5] = molecular target: T1, human leucocyte elastase (HLE) (Homo sapiens, UniProt P08246); details: cited from earlier work
# T1 sequence (P08246 30-267): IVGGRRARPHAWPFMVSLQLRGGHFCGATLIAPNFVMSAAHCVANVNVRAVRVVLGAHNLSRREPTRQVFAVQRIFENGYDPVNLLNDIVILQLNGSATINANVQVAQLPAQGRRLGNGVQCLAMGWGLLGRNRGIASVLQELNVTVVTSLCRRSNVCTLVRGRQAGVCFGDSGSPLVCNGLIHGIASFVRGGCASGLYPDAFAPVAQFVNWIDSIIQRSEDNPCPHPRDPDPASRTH
# human fibroblasts [6] = experiment: Cytophotoprotection of human fibroblasts against UV-A radiation; assay type: cell-based
# Procedure: The cytoprotection against UV-A radiation was evaluated by a test on human fibroblasts because UV-A radiation penetrates through the epidermis until the derma where it induces oxidative stress (DALLE CARBONARE M, PATHAK M A; Skin photosensitising agents and the role of reactive oxygen species in photoaging; JOURNAL OF PHOTOCHEMISTRY & PHOTOBIOLOGY, 1992, 14, 1-2, pages 105-124. This oxidative stress was evaluated in vitro by measuring of the level of released MDA (malonaldehyde) and of intracellular GSH (reduced glutathione) (Morliere P., Moisan A., Santus R., Huppe G., Mazière J. C., Dubertret L.: UV-A induced lipid peroxydation in cultured human fibroblasts. Biochim. Biophys. Acta, 1084, 3, pages 261-269 (1991)).
# Expressed in keywords, the experiments were carried out as follows: • Inoculation of human fibroblasts within a growth medium (standard medium with foetal calf serum (FCS) • Incubation 3 days at 37° C., CO2=5% • Exchange of growth medium with balanced salt solution • Irradiation of fibroblasts by UV-A: 20 J/cm^2 (black light TFWN lamp) (A TFWN lamp is a certain type of marketed sunlamp well known to the skilled artisan) • Exchange of growth medium with standard medium without FCS but containing ingredient to be tested • Incubation 3 days at 37° C., CO2=5% • Recovery of supernatant medium for spectrophotometric determination of the malonaldialdehde (or MDA) rate • Cells number determined by evaluation of the levels of cellular proteins (Bradford's method) and the rate of cellular GSH was evaluated according to the method of Hissin
smiles,measurement,setting,value
CC1(C)CC[C@]2(CO)CC[C@]3(C)C(=CC[C@@H]4[C@@]5(C)CC[C@H](O)C(C)(C)[C@@H]5CC[C@]43C)[C@@H]2C1 [erythrodiol],ATP,human fibroblasts [1]; 0.00001% w/v,107%
same,DNA,human fibroblasts [1]; 0.00001% w/v,96%
same,GSH/proteins,human fibroblasts [1]; 0.00001% w/v,120%
same,Proteins,human fibroblasts [1]; 0.00001% w/v,100%
same,ATP,human fibroblasts [1]; 0.00003% w/v,99%
same,DNA,human fibroblasts [1]; 0.00003% w/v,108%
same,GSH/proteins,human fibroblasts [1]; 0.00003% w/v,141%
same,Proteins,human fibroblasts [1]; 0.00003% w/v,97%
same,ATP,human fibroblasts [1]; 0.0001% w/v,66%
same,DNA,human fibroblasts [1]; 0.0001% w/v,78%
same,GSH/proteins,human fibroblasts [1]; 0.0001% w/v,101%
same,Proteins,human fibroblasts [1]; 0.0001% w/v,91%
same,ATP,human fibroblasts [1]; 0.0003% w/v,73%
same,DNA,human fibroblasts [1]; 0.0003% w/v,59%
same,GSH/proteins,human fibroblasts [1]; 0.0003% w/v,88%
same,Proteins,human fibroblasts [1]; 0.0003% w/v,83%
same,amount of GSH synthesized by human fibroblasts,human fibroblasts [1]; only at a concentration of 0.00003%,modified
same,UV toxic effects on the number of viable cells (cell number and released LDH),human keratinocytes,not modified
same,"Cell number, % against control",human keratinocytes; dose 0.00001%,21%
same,"Released LDH, % against control",human keratinocytes; dose 0.00001%,135%
same,"Released PGE2, % against control",human keratinocytes; dose 0.00001%,135%
same,"Cell number, % against control",human keratinocytes; dose 0.00003%,23%
same,"Released LDH, % against control",human keratinocytes; dose 0.00003%,118%
same,"Released PGE2, % against control",human keratinocytes; dose 0.00003%,164%
same,LD50 (% w/v),"human fibroblasts [2]; human fibroblasts, 3 days incubation",0.0009% w/v
same,safe at concentrations up to,"human fibroblasts [2]; human, 3 days",up to 0.0003%
same,"viability at 3 days, 0.0001 %",[3],104%
same,"viability at 3 days, 0.0003 %",[3],105%
same,"viability at 3 days, 0.001 %",[3],43%
same,"viability at 3 days, 0.003 %",[3],34%
same,activity on chronic dermal inflammation,[4],significantly effective
same,inhibition of proteases such as elastase,elastase from pancreas,good potential to inhibit
same,IC50,"elastase from pancreas; 30 minutes at room temperature, Elastin-Congo red, read-out: Elastase EC 50 (concentration which reduces the enzymatic activity by 50%) (converted)",1810 µM
same,interaction with the ursolic acid binding site of HLE,[5],can also interact with this binding site
same,protection of human fibroblasts from toxic UVA effects,human fibroblasts [6],moderately protected
same,"GSH/protein, % against control","human fibroblasts [6]; UV-A 20 J/cm^2, dose 0.0001%",94%
same,"Released MDA, % against control","human fibroblasts [6]; UV-A 20 J/cm^2, dose 0.0001%",81%
same,"cell's protein, % against control","human fibroblasts [6]; UV-A 20 J/cm^2, dose 0.0001%",139%
same,"GSH/protein, % against control","human fibroblasts [6]; UV-A 20 J/cm^2, dose 0.0003%",22%
same,"Released MDA, % against control","human fibroblasts [6]; UV-A 20 J/cm^2, dose 0.0003%",70%
same,"cell's protein, % against control","human fibroblasts [6]; UV-A 20 J/cm^2, dose 0.0003%",42%
